According to US10022453B2 (BAYER PHARMA AKTIENGESELLSCHAFT, priority 2013, dated 2018):

Columns and labels:
[1] = Cell permeability, flux assay using Caco-2 cells; settings: human, Caco-2
Method: C-3 In Vitro Tests for Determining Cell Permeability
The cell permeability of a substance can be investigated by means of in vitro testing in a flux assay using Caco-2 cells [M. D. Troutman and D. R. Thakker, Pharm. […] For this purpose, the cells were cultured for 15-16 days on 24-well filter plates. For the determination of permeation, the respective working example was applied in a HEPES buffer to the cells either apically (A) or basally (B) and incubated for 2 hours. After 0 hours and after 2 hours, samples were taken from the cis and trans compartments. The samples were separated by HPLC (Agilent 1200, Böblingen, Germany) using reverse phase columns.
Of critical importance for toxophores which are released intracellularly is the permeability from B to A [Papp(B-A)] and the ratio of Papp(B-A) to Papp(A-B) (efflux ratio): the lower this permeability, the slower the active and passive transport processes of the substance through the monolayer of Caco-2 cells.

NCI-H292 = test: Cytotoxic effects, MTT assay; format: cell-based; settings: Homo sapiens, 72 h incubation
Method: The cells are cultivated by a standard method, as indicated in the […] (ATCC) for the respective cell lines.
At the end of the selected incubation time, the MTT reagent is incubated with the cells for 4 h, followed by lysis of the cells overnight by addition of the detergent. […] The proliferation of cells which were not treated with test substance but were otherwise identically treated was defined as the 100% figure.

[2] = target: T1, human kinesin spindle protein KSP/Eg5 (Homo sapiens, UniProt P52732); test: Inhibition of the kinesin spindle protein KSP/Eg5 (ATPase, malachite green); format: biochemical; settings: 10 nM KSP motor domain, 500 μM ATP, 2 h RT
T1 construct: The motor domain of the human kinesin spindle protein KSP/Eg5; purchased tebu-bio/Cytoskeleton Inc 027EG01-XL
T1 sequence (P52732 18-359 limits assumed): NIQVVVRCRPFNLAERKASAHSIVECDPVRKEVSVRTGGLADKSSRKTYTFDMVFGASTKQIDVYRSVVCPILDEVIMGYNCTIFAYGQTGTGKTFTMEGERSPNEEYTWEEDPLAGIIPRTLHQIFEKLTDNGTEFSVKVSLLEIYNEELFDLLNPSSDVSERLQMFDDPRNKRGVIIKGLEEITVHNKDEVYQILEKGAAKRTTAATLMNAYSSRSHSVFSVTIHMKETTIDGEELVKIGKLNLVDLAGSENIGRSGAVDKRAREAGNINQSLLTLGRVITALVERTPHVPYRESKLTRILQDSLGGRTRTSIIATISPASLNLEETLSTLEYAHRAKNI
Method: C-1b Determination of the Inhibition of the Kinesin Spindle Protein KSP/Eg5 by Selected Examples
The motor domain of the human kinesin spindle protein KSP/Eg5 (from tebu-bio/Cytoskeleton Inc, No. 027EG01-XL) is incubated at a concentration of 10 nM with 50 μg/ml taxol- (from Sigma No. T7191-5MG) stabilized microtubuli (bovine or porcine, from tebu-bio/Cytoskeleton Inc) for 5 min at RT in 15 mM PIPES, pH 6.8 (5 mM MgCl2 and 10 mM DTT, from Sigma). The freshly prepared mixture is aliquoted into a 384-well MTP. The inhibitors to be examined at concentrations of 1.0×10^−6 M to 1.0×10^−13 and ATP (final concentration 500 μM, from Sigma) are then added. Incubation is at RT for 2 h. ATPase activity is detected by detecting the inorganic phosphate formed using malachite green (from Biomol). […] The individual data of the dose-activity curve are eight-fold determinations. The IC50 values are means of three independent experiments.

SMILES: CC(C)(C)[C@H](c1cc(-c2cc(F)ccc2F)cn1Cc1ccccc1)N(CCCN)C(=O)CSCCC(NC(=O)CCOCCOCCOCCOCCNC(=O)CCN1C(=O)CC(SC[C@H](N)C(=O)O)C1=O)C(=O)O.O=C(O)C(F)(F)F (mixture of isomers) [Example 138, N-[19-(3(R/S)-{[(2R)-2-amino-2-carboxyethyl]sulphanyl}-2,5-dioxopyrrolidin-1-yl)-17-oxo-4,7,10,13-tetraoxa-16-azanonadecan-1-oyl]-R/S-{2-[(3-aminopropyl){(1R)-1-[1-benzyl-4-(2,5-difluorophenyl)-1H-pyrrol-2-yl]-2,2-dimethylpropyl}amino]-2-oxoethyl}homocysteine/trifluoroacetic acid (1:1)]
- Papp B→A at 2 h [1]: 0.17 ×10⁻⁶ cm/s
- efflux ratio at 2 h [1]: 1.6
- IC50 (NCI-H292): ≥ 500 nM

SMILES: CC(C)(C)[C@H](c1nc(-c2cc(F)ccc2F)cn1Cc1ccccc1)N(CC[C@H](N)C(=O)NCCNC(=O)CSC[C@H](N)C(=O)O)C(=O)CO.O=C(O)C(F)(F)F [Example 97, S-(2-{[2-({(2S)-2-Amino-4-[{(1R)-1-[1-benzyl-4-(2,5-difluorophenyl)-1H-imidazol-2-yl]-2,2-dimethylpropyl}(glycoloyl)amino]butanoyl}amino)ethyl]amino}-2-oxoethyl)-L-cysteine/trifluoroacetic acid (1:1)]
- Papp B→A at 2 h [1]: 0.56 ×10⁻⁶ cm/s
- efflux ratio at 2 h [1]: 2
- IC50 [2]: 2.13 nM

SMILES: CC(C)(C)[C@H](c1cc(-c2cc(F)ccc2F)cn1Cc1ccccc1)N(CCCN)C(=O)CO [Example 98, N-(3-aminopropyl)-N-{(1R)-1-[1-benzyl-4-(2,5-difluorophenyl)-1H-pyrrol-2-yl]-2,2-dimethylpropyl}-2-hydroxyacetamide]
- IC50 (NCI-H292): 1.65 nM
- IC50 [2]: 1.8 nM

SMILES: CNC(=O)[C@@H](N)CCN(C(=O)CO)[C@@H](c1cc(-c2cc(F)ccc2F)cn1Cc1ccccc1)C(C)(C)C.O=C(O)C(F)(F)F [Example 99, Trifluoroacetic acid/(2S)-2-amino-4-[{(1R)-1-[1-benzyl-4-(2,5-difluorophenyl)-1H-pyrrol-2-yl]-2,2-dimethylpropyl}(glycoloyl)amino]-N-methylbutanamide (1:1)]
- Papp B→A at 2 h [1]: 30.3 ×10⁻⁶ cm/s
- efflux ratio at 2 h [1]: 8.7
- IC50 (NCI-H292): 0.851 nM

SMILES: CC(C)(C)[C@@H](c1cc(-c2cc(F)ccc2F)cn1Cc1ccccc1)N(CCCN)C(=O)CO [Example 102, N-(3-Aminopropyl)-N-{(1S)-1-[1-benzyl-4-(2,5-difluorophenyl)-1H-pyrrol-2-yl]-2,2-dimethylpropyl}-2-hydroxyacetamide]
- IC50 (NCI-H292): 32.9 nM
- IC50 [2]: 4.7 nM

SMILES: CC(C)(C)[C@H](c1cc(-c2cc(F)ccc2F)cn1Cc1ccccc1)N(CC[C@H](N)C(=O)NCCNC(=O)CN1C(=O)CC(SC[C@H](N)C(=O)O)C1=O)C(=O)CO.O=C(O)C(F)(F)F (stereo partly drawn) [Example 135, S-[1-(2-{[2-({(2S)-2-Amino-4-[{(1R)-1-[1-benzyl-4-(2,5-difluorophenyl)-1H-pyrrol-2-yl]-2,2-dimethylpropyl}(glycoloyl)amino]butanoyl}amino)ethyl]amino}-2-oxoethyl)-2,5-dioxopyrrolidin-3-yl]-L-cysteine/trifluoroacetic acid (1:1)]
- Papp B→A at 2 h [1]: 0.78 ×10⁻⁶ cm/s
- efflux ratio at 2 h [1]: 4
- IC50 (NCI-H292): ≥ 500 nM

SMILES: CC(C)(C)[C@H](c1cc(-c2cc(F)ccc2F)cn1Cc1ccccc1)N(CC[C@H](N)C(=O)NCCNC(=O)CSC[C@H](N)C(=O)O)C(=O)CO.O=C(O)C(F)(F)F [Example 158, S-(2-{[2-({(2S)-2-Amino-4-[{(1R)-1-[1-benzyl-4-(2,5-difluorophenyl)-1H-pyrrol-2-yl]-2,2-dimethylpropyl}(glycoloyl)amino]butanoyl}amino)ethyl]amino}-2-oxoethyl)-L-cysteine/trifluoroacetic acid (1:1)]
- Papp B→A at 2 h [1]: 0.56 ×10⁻⁶ cm/s
- efflux ratio at 2 h [1]: 2.2
- IC50 (NCI-H292): 22.2 nM

SMILES: CC(C)(C)[C@H](c1cc(-c2cc(F)ccc2F)cn1Cc1ccccc1)N(CC[C@H](N)C(=O)NCCNC(=O)CC[C@H](N)C(=O)O)C(=O)CO.O=C(O)C(F)(F)F [Example 161, N-[2-({(2S)-2-Amino-4-[{(1R)-1-[1-benzyl-4-(2,5-difluorophenyl)-1H-pyrrol-2-yl]-2,2-dimethylpropyl}(glycoloyl)amino]butanoyl}amino)ethyl]-L-glutamine/trifluoroacetic acid (1:1)]
- Papp B→A at 2 h [1]: 0.16 ×10⁻⁶ cm/s
- IC50 (NCI-H292): 35.5 nM

SMILES: CC(C)(C)[C@H](c1cc(-c2cc(F)ccc2F)cn1Cc1ccccc1)N(CC[C@H](N)C(=O)NCCC(=O)NCCCC[C@H](N)C(=O)O)C(=O)CO.O=C(O)C(F)(F)F [Example 162, N^6-(N-(2S)-2-Amino-4-[{(1R)-1-[1-benzyl-4-(2,5-difluorophenyl)-1H-pyrrol-2-yl]-2,2-dimethylpropyl (glycoloyl)amino]butanoyl}-beta-alanyl)-L-lysine/trifluoroacetic acid (1:1)]
- Papp B→A at 2 h [1]: 0.2 ×10⁻⁶ cm/s
- IC50 (NCI-H292): 121 nM

SMILES: CC(=O)N(CCCN)[C@@H](c1nn(-c2cc(F)ccc2F)cc1Cc1ccccc1)C(C)(C)C [Example 181, N-(3-Aminopropyl)-N-{(1R)-1-[4-benzyl-1-(2,5-difluorophenyl)-1H-pyrazol-3-yl]-2,2-dimethylpropyl}acetamide]
- IC50 (NCI-H292): 7.72 nM
- IC50 [2]: 7.9 nM

SMILES: COCC(=O)N(CCCN)[C@@H](c1nn(-c2cc(F)ccc2F)cc1Cc1ccccc1)C(C)(C)C [Example 182, N-(3-aminopropyl)-N-{(1R)-1-[4-benzyl-1-(2,5-difluorophenyl)-1H-pyrazol-3-yl]-2,2-dimethylpropyl}-2-methoxyacetamide]
- IC50 (NCI-H292): 1.2 nM
- IC50 [2]: 10.4 nM

SMILES: CC(C)(C)[C@H](c1nn(-c2cc(F)ccc2F)cc1Cc1ccccc1)N(CCCN)C(=O)c1ccc(F)cc1F [Example 183, N-(3-aminopropyl)-N-{(1R)-1-[4-benzyl-1-(2,5-difluorophenyl)-1H-pyrazol-3-yl]-2,2-dimethylpropyl}-2,4-difluorobenzamide]
- IC50 (NCI-H292): 32.9 nM
- IC50 [2]: 6.21 nM

SMILES: Cc1ccc(C(=O)N(CCCN)[C@@H](c2nn(-c3cc(F)ccc3F)cc2Cc2ccccc2)C(C)(C)C)cc1 [Example 184, N-(3-aminopropyl)-N-{(1R)-1-[4-benzyl-1-(2,5-difluorophenyl)-1H-pyrazol-3-yl]-2,2-dimethylpropyl}-4 methylbenzamide]
- IC50 (NCI-H292): 27.8 nM
- IC50 [2]: 14.3 nM

SMILES: CCOCC(=O)N(CCCN)[C@@H](c1nn(-c2cc(F)ccc2F)cc1Cc1ccccc1)C(C)(C)C [Example 185, N-(3-aminopropyl)-N-{(1R)-1-[4-benzyl-1-(2,5-difluorophenyl)-1H-pyrazol-3-yl]-2,2-dimethylpropyl}-2-ethoxyacetamide]
- IC50 (NCI-H292): 12 nM
- IC50 [2]: 18 nM

SMILES: CC(C)(C)[C@H](c1cc(-c2cc(F)ccc2F)cn1Cc1ccccc1)N(CCCN)C(=O)CC(F)(F)F [Example 186, N-(3-Aminopropyl)-N-{(1R)-1-[1-benzyl-4-(2,5-difluorophenyl)-1H-pyrrol-2-yl]-2,2-dimethylpropyl}-3,3,3-trifluoropropanamide]
- IC50 (NCI-H292): 9.29 nM
- IC50 [2]: 25.3 nM

SMILES: CC(C)(C)[C@H](c1cc(-c2cc(F)ccc2F)cn1Cc1ccccc1)N(CCCN)C(=O)c1ccc(F)cc1 [Example 187, N-(3-aminopropyl)-N-{(1R)-1-[1-benzyl-4-(2,5-difluorophenyl)-1H-pyrrol-2-yl]-2,2-dimethylpropyl}-4-fluorobenzamide]
- IC50 (NCI-H292): 1.98 nM
- IC50 [2]: 14.1 nM

SMILES: CC(=O)N(CCCN)[C@@H](c1cc(-c2cc(F)ccc2F)cn1Cc1ccccc1)C(C)(C)C [Example 188, N-(3-aminopropyl)-N-{(1R)1-[1-benzyl-4-(2,5-difluorophenyl)-1H-pyrrol-2-yl]-2,2-dimethylpropyl}acetamide]
- IC50 (NCI-H292): 0.928 nM
- IC50 [2]: 10.1 nM

SMILES: CC(C)(C)[C@H](c1cc(-c2cc(F)ccc2F)cn1Cc1ccccc1)N(CC[C@H](N)C(=O)O)C(=O)CO.Cl [Example 197, (2S)-2-Amino-4-[{(1R)-1-[1-benzyl-4-(2,5-difluorophenyl)-1H-pyrrol-2-yl]-2,2-dimethylpropyl}(glycoloyl)amino]butanoic acid hydrochloride (1:1)]
- Papp B→A at 2 h [1]: 9.3 ×10⁻⁶ cm/s
- IC50 (NCI-H292): 7.35 nM
